Structures are written as SMILES. Like-named read-outs stand apart in the source and are kept apart here.

One data set has as its system SH-SY5Y cells. It is filed as cell-based, human. The following applies: for protection on MPP+-induced toxicity (cell viability, MTT): 1 µM compound, 1 h pre-incubation, then 0.5 mM MPP+ for 24 h. As for the experimental part:
SH-SY5Y human neuroblastoma cells were kept in culture under a humidified atmosphere of 5% CO2 at 37 °C in Dulbecco’s Modified Eagle Medium/Nutrient Mixture F-12 (DMEM/F-12) (Gibco, Thermo Fisher Scientific) supplemented with 10% heat-inactivated fetal bovine serum (FBS), 50 U/mL penicillin, and 50 μg/mL streptomycin. Cells were plated at a density of 1 × 10^5 cells/mL and pre-incubated for 1 h with the compounds by adding them to the medium at the following final concentrations: 1 µM for compounds 4a, 4b, and 5b; 2 µM for compounds 4c and 5a; and 3 µM for compound 4d. Then the cells were incubated for 24 h with MPP^+ (1-methyl-4-phenylpyridinium, Sigma-Aldrich) (1 h pre-incubation + 24 h incubation) at the final concentration of 0.5 mM. MPP^+ was freshly prepared in sterile water on the day of the experiment. The compounds were dissolved in DMSO, aliquoted, and stored at −20 °C; their toxicity was previously studied through cell viability assays to select the highest non-toxic concentration of each compound.
Cell viability was measured by the colorimetric MTT (3-(4,5-dimethylthiazol-2-yl)-2,5-diphenyltetrazolium bromide) reduction assay, which follows the principle that viable cells can metabolize MTT into formazan that absorbs light at 570 nm. After the cell treatments with the compounds and MPP^+, the culture medium was removed, 150 µL of MTT (0.5 mg/mL dissolved in sodium medium) was added to each well, and the 48-well plate was incubated at 37 °C for 2 h. The formazan precipitates were then solubilized with 150 µL of 0.04 M HCl/isopropanol. The absorbance was read at 570 nm using a spectrophotometer (Spectramax Plus 384), and cell viability results were normalized to untreated SH-SY5Y cells, with the means ± SEMs derived from six different experiments performed in duplicate (N = 6). Statistical analyses were performed on GraphPad Prism 8 (GraphPad Software, San Diego, CA, USA) using one-way analysis of variance (ANOVA) followed by Tukey’s post hoc test or using Student’s t-test to determine statistical significance.

Another data set addresses T1, hMAO-B (Homo sapiens, UniProt P27338).
T1 construct: purchased Sigma-Aldrich Quimica S.A., Madrid, Spain; host or cells: insect cells (BTI-TN-5B1-4) infected with recombinant baculovirus
T1 sequence (P27338 1-520): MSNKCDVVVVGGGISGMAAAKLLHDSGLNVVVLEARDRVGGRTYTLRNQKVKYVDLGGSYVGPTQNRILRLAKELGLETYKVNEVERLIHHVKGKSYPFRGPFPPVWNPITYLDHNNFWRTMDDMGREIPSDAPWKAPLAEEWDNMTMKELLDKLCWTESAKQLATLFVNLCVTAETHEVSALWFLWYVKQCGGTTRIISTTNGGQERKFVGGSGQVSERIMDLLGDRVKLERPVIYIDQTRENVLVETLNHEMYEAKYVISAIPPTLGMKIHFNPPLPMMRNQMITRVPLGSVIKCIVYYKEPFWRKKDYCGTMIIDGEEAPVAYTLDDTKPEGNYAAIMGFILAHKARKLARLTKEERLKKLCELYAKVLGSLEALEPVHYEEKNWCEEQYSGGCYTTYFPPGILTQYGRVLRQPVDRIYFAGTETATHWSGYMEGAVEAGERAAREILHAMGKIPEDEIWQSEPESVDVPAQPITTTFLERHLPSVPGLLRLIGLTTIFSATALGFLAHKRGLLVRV
Description: hMAO-B inhibition (kynuramine to 4-hydroxyquinoline, microsomal recombinant enzyme). It is filed as biochemical. As for the experimental part: (§1) The inhibitory activity of the rivastigmine hybrids (RIV–BIM) on hMAO-A and hMAO-B was studied using an experimental protocol described elsewhere with some modifications. The outlined hMAO inhibition was assessed in microsomal MAO isoforms prepared from insect cells (BTI-TN-5B1-4) infected with recombinant baculovirus containing cDNA inserts for hMAO-A or hMAO-B (Sigma-Aldrich Quimica S.A., Madrid, Spain) and by measuring the enzymatic conversion rates of kynuramine into 4-hydroxyquinoline. […] All assays were performed under sodium phosphate-buffered conditions (50 mM, pH = 7.4). […] Then, the reaction was started with the addition of hMAO-A or hMAO-B. Initial velocities were determined spectrophotometrically in a microplate reader (Biotek Synergy HT, Winooski, VT, USA) at 37 °C by measuring the formation of 4-hydroxyquinoline at 316 nm, over a period of at least 30 min (interval of 1 min). Data were analyzed using GraphPad PRISM version 6 for Windows (GraphPad Software®, San Diego, CA, USA). The initial velocities, obtained from the linear phase of product formation, were normalized and plotted against the respective inhibitor concentration. IC50 values were obtained from dose–response curves and were expressed as the mean ± standard deviation. IC50 values were determined from at least three independent experiments, each performed in triplicate.

The next data set deals with T2, hMAO-A (Homo sapiens, UniProt P21397).
T2 construct: purchased Sigma-Aldrich Quimica S.A., Madrid, Spain; host or cells: insect cells (BTI-TN-5B1-4) infected with recombinant baculovirus
T2 sequence (P21397 1-527): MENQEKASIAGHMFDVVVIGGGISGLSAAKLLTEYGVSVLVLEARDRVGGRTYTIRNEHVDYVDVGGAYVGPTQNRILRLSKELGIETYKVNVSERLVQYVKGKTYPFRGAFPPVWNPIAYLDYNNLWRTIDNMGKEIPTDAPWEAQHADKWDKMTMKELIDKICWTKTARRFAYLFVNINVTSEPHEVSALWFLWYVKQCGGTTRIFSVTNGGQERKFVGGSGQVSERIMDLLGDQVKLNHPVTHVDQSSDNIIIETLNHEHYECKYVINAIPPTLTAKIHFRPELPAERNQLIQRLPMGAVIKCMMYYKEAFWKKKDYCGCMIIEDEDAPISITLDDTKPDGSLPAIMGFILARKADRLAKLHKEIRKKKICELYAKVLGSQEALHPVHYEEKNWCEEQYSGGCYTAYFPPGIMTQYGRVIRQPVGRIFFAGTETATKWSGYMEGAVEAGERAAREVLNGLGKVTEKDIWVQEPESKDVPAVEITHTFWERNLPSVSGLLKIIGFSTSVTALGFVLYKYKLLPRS
Nature of the data set: hMAO-A inhibition (kynuramine to 4-hydroxyquinoline, microsomal recombinant enzyme). The data set is classed as biochemical. Conditions: for hMAO isoform selectivity: hMAO-A vs hMAO-B; for inhibition at 10 µM: read-out: % Inhibition (at 10 µM) hMAO-A. Here is the method:
as §1

In data set [1] the test system is Aβ42. The following applies: cited from earlier work.
The test system of data set [2] is Aβ42. The following applies: cited from earlier work. The source holds these as a separate data set.
[3] abbreviates: presence of copper (40 µM), 20 µM inhibitor, thioflavin-T fluorescence.
[4] abbreviates: absence of copper, 20 µM inhibitor, thioflavin-T fluorescence.

On to `CCN(C)C(=O)Oc1cccc(NC(=O)c2ccc3[nH]c(-c4ccccc4O)nc3c2)c1` [4a], for which the “protection on MPP+-induced toxicity (cell viability, MTT)” value in the data set with SH-SY5Y cells is recorded as “significant protection”. On hMAO-B, the inhibition at 10 µM came out at 28%. Besides, on hMAO-A, the IC50 was found to be 0.74 ± 0.07 µM and the hMAO isoform selectivity entry was “selective for isoform A”. The “Aβ42 Cu-ind. Aggreg. Inhib.” value with Aβ42 [1] (setting [3]) is listed as 41.2%. In addition, the “Aβ42 Self- Aggreg. Inhib.” value in the data set on Aβ42 [2] (setting [4]) is reported as 39.0%.

Turning to `CCN(C)C(=O)Oc1cccc(CNC(=O)c2ccc3[nH]c(-c4ccccc4O)nc3c2)c1` [4b], the inhibition at 10 µM at hMAO-B is 43%. Besides, on hMAO-A, the IC50 is 8.6 ± 0.9 µM and the hMAO isoform selectivity entry is “selective for isoform A”. Also, the “Aβ42 Cu-ind. Aggreg. Inhib.” value in the data set with Aβ42 [1] (setting [3]) is listed as 48.8%. The “Aβ42 Self- Aggreg. Inhib.” value in the data set on Aβ42 [2] (setting [4]) is 39.6%.

For the molecule `CCN(C)C(=O)Oc1ccc(CCCNC(=O)c2ccc3[nH]c(-c4ccccc4O)nc3c2)cc1` [4d], at hMAO-B, the inhibition at 10 µM is 43%. At hMAO-A, the IC50 turned out to be 11 ± 1 µM and the hMAO isoform selectivity result is reported as “selective for isoform A”. In addition, the “Aβ42 Cu-ind. Aggreg. Inhib.” value in the data set on Aβ42 [1] (setting [3]) is on record as 21.3%. The “Aβ42 Self- Aggreg. Inhib.” value in the data set with Aβ42 [2] (setting [4]) is recorded as 20.1%.

Take `CCN(C)C(=O)Oc1cccc(CNC(=O)c2cccc3[nH]c(-c4ccccc4O)nc23)c1` [5b]: the “protection on MPP+-induced toxicity (cell viability, MTT)” value with SH-SY5Y cells is “significant protection”. Besides, the values for the inhibition at 10 µM on hMAO-B and at hMAO-A were 34% and 22%, respectively. Also, the “Aβ42 Cu-ind. Aggreg. Inhib.” value in the data set with Aβ42 [1] (setting [3]) is on record as 60.8%. Also, the “Aβ42 Self- Aggreg. Inhib.” value in the data set on Aβ42 [2] (setting [4]) is reported as 58.7%.

With `COc1cc(/C=C/C(=O)CC(=O)/C=C/c2ccc(O)c(OC)c2)ccc1O` [Curcumin, curcumin, reference compound], in the data set on Aβ42 [1], the “Aβ42 Cu-ind. Aggreg. Inhib.” value is reported as 62.7%. For the same molecule, the “Aβ42 Self- Aggreg. Inhib.” value in the data set with Aβ42 [2] is 65.7%.

Take `C[n+]1ccc(-c2ccccc2)cc1` [MPP^+, 1-methyl-4-phenylpyridinium, reference compound]: in the data set on SH-SY5Y cells (MPP+ 0.5 mM, 24 h, MTT), the “decrease in cell viability compared with untreated cells” value is on record as “approximately 30%”.

For the molecule `C[C@H](NCc1ccc(OCc2cccc(F)c2)cc1)C(N)=O` [Safinamide, safinamide, reference compound], the inhibition at 10 µM on hMAO-A was determined as 13%.

As a reminder, the inhibition is the share of the control response that was lost under treatment. What is called IC50 is the concentration needed to halve the response being measured.

Source of the values: PMC10179505, “Rivastigmine–Benzimidazole Hybrids as Promising Multitarget Metal-Modulating Compounds for Potential Treatment of Neurodegenerative Diseases” (International Journal of Molecular Sciences, 2023).
